Patent US11274165B2, “Pentosan polysulfate, pharmaceutical composition, and anticoagulant” (OJI HOLDINGS CORPORATION, priority 2017, dated 2022)

Experiments:
factor Xa = assay: Anti-Xa activity measured using Test Team Heparin S (Sekisui Medical); assay type: biochemical; conditions: for Anti-Xa/anti-IIa activity ratio: ratio of anti-Xa activity to anti-IIa activity
Experimental: Herein, the factor Xa inhibitory activity (anti-Xa activity) can be measured using Test Team (registered trademark) Heparin S (manufactured by Sekisui Medical Co., Ltd.).
Using Test Team (registered trademark) Heparin S (manufactured by Sekisui Medical Co., Ltd.), the anti-Xa activity of pentosan polysulfate sodium was measured.
(§1) The content of acetyl groups, the content of sulfur, the anti-Xa activity, and the anti-IIa activity were measured in the same manners as those of Examples 1 to 5.

factor IIa = biological target: T1, factor IIa (Homo sapiens, UniProt P00734); assay: Anti-IIa activity measured using Biophen heparin anti-IIa (Hyphen Biomed); assay type: biochemical
T1 construct: purchased Hyphen Biomed
Experimental: Moreover, the factor IIa inhibitory activity (anti-IIa activity) can be measured using Biophen heparin anti-IIa (manufactured by Hyphen Biomed).
Using Biophen heparin anti-IIa (manufactured by Hyphen Biomed), the anti-IIa activity of pentosan polysulfate sodium was measured.
as §1

[1] = Table 3, influence of molecular weight
[2] = Table 1, influence of content of acetyl groups

Substance	Anti-Xa activity (IU/mg) (factor Xa; [1])	Anti-Xa/anti-IIa activity ratio (factor Xa; Table 3)	Anti-IIa activity (IU/mg) (factor IIa; [1])	Anti-Xa activity (IU/mg) (factor Xa; [2])	Anti-Xa/anti-IIa activity ratio (factor Xa; Table 1)	Anti-IIa activity (IU/mg) (factor IIa; [2])
pentosan polysulfate sodium [Comp. Ex. 4]	0.73 IU/mg	0.11	6.80 IU/mg			
pentosan polysulfate sodium [Ex. 6]	0.67 IU/mg	4.29	0.15 IU/mg			
pentosan polysulfate sodium [Comp. Ex. 3, reference compound]	16.61 IU/mg	0.15	62.12 IU/mg			
pentosan polysulfate sodium [Ex. 5]				0.2297 IU/mg	2.352	0.0976 IU/mg
pentosan polysulfate sodium [Ex. 8]	0.22 IU/mg	0.51	0.43 IU/mg			
pentosan polysulfate sodium [Ex. 2]				0.2588 IU/mg	1.403	0.1845 IU/mg
pentosan polysulfate sodium [Ex. 1]				0.2047 IU/mg	1.457	0.1405 IU/mg
pentosan polysulfate sodium [Comp. Ex. 1, reference compound]				0.0840 IU/mg	3.801	0.0221 IU/mg
pentosan polysulfate sodium [Ex. 4]				0.2419 IU/mg	2.591	0.0934 IU/mg
pentosan polysulfate sodium [Ex. 7]	0.15 IU/mg	1.25	0.12 IU/mg			
pentosan polysulfate sodium [Comp. Ex. 2]	1.69 IU/mg	0.11	15.52 IU/mg			
pentosan polysulfate sodium [Ex. 3]				0.2439 IU/mg	3.607	0.0676 IU/mg
